Measurements: publication PMC6934184, “Selective DNA-PKcs inhibition extends the therapeutic index of localized radiotherapy and chemotherapy” (The Journal of Clinical Investigation, 2019)

Molecular target: T1, MKNK1 (MNK1) (Homo sapiens, UniProt Q9BUB5)
T1 construct: purchased Thermo Fisher Scientific (Life Technologies) SelectScreen
Assay: SelectScreen Z'LYTE
Type: biochemical
Method in brief: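 NU5455 was profiled across the SelectScreen Broad panel of kinase activity and binding assays. Z'LYTE reactions such as CSF1R ran at apparent Km ATP, while the Adapta CAMK1 assay used ATP listed as 10. Values are given as percent.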

T1 sequence (Q9BUB5 whole entry): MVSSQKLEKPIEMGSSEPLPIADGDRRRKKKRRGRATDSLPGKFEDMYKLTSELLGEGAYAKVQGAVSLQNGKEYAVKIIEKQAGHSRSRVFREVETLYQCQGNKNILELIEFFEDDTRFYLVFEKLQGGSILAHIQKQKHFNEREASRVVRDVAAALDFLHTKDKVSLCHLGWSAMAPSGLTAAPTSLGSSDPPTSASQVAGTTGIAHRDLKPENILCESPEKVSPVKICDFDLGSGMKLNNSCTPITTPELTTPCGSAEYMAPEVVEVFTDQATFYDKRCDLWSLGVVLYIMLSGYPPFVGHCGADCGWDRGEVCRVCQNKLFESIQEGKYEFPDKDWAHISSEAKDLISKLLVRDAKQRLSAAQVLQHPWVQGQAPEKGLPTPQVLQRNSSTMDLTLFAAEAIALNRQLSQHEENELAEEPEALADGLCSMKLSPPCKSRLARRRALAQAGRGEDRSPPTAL

With `CN(C(=O)CN1CCOCC1)c1ccc2sc3c(-c4cccc5c(=O)cc(N6CC7CCC(C6)O7)oc45)cccc3c2c1` [NU5455] the inhibition at 1 µM was -10.7%.
